In test [1] the test system is acetylated histone H4 in primary cortical neurons. The test is described as follows: Western blot of histone H4 acetylation. In kind it is cell-based, rat. The method, then:
(§1) Primary neurons and cell culture: Cell cultures were obtained from the cerebral cortex of fetal Sprague-Dawley rats (embryonic day 17), as described previously. All experiments were initiated 24 hours after plating. Under these conditions, the cells are not susceptible to glutamate-mediated excitotoxicity.
Histone precipitation and Western blot analysis: Treated neurons (about 1×10^6) were incubated in hypotonic lysis buffer (1 mL) containing Tris-HCl (pH 8.0, 10 mM), KCl (1 mM), MgCl2 (1.5 mm), DTT (1 mM), aprotinin (1 mM), pepstatin (1 mM), and PMSF (0.4 mM) for 30 minutes, rotating at 4° C. Nuclei were pelleted by centrifugation for 10 minutes at 10,000 rpm (9000 g), resuspended in H2SO4 (0.4N, 200 μL), and rotated for 12 hours at 4° C. Following centrifugation at 13,000 rpm (16,000 g value) for 10 minutes, the supernatant was transferred to anew tube, and the histone proteins were precipitated by adding 100% trichloroacetic acid (TCA: 66 μL) dropwise followed by 30 minutes incubation on ice. Histone proteins were pelleted by centrifugation at 13,000 rpm (16,000 g) for 10 minutes, washed twice with ice-cold acetone, dried at room temperature for 20-40 minutes, and resuspended in H2O ([…]). Total histone proteins (20 μL) were boiled in Laemmli buffer and electrophoresed under reducing conditions on 15% polyacrylamide gel. Histone proteins were transferred to a nitrocellulose membrane (Bio-Rad, Hercules, Calif.). Nonspecific binding was inhibited by incubation in Tris-buffered saline with Tween 20 (TBST: 50 mM Tris-HCl pH 8.0, 0.9% NaCl, and 0.1% Tween 20) containing 5% nonfat dried milk for at least 1.5 hours. Primary antibodies against acetylated histone H4 or total histone H4 (Upstate) were diluted 1:1000 or 1:4000, respectively, in TBST containing 5% milk and incubated with the membrane for 3 hours at room temperature, followed by incubation with anti-rabbit horseradish peroxidase-conjugated secondary antibodies for 2 h at room temperature. Acetyl histone H4 and total histone H4 immunoreactivity was detected according to the enhanced chemiluminescent protocol (Amersham Biosciences, Fairfield, Conn.).
To illustrate the HDAC-inhibitory activity of the present benzolactams, an ability of the compounds to alter histone acetylation levels was examined. FIG. 3 contains Western blot analyses showing the effect of percent benzolactam compounds at 10 μM (FIG. 3A) and 20 μM (FIG. 3B) in the acetylation levels of histone H4. Cultures of primary cortical neurons were treated with the various benzolactam compounds (at 10 μM) for a period of 8 hours, and Western blot analysis then was performed using acetyl-histone H4-specific antibodies (FIG. 3A).
For orientation: A western blot detects proteins with antibodies after separation by electrophoresis.

Test [2] concerns HEK293 cells stably transfected with human APP. The test is described as follows: sAPPα ELISA. The class given is cell-based. As for the experimental part: (§2) sAPPα and Aβ40 detection: […] cell lines stably transfected with human APP were maintained in Dulbecco's modified Eagle's medium (DMEM) with 10% fetal bovine serum (FBS). Cells were seeded onto 6-well plates, and incubated at 37° C. overnight. Compounds 9-14 were first dissolved in dimethyl sulfoxide (DMSO) as a 10 mM stock and diluted into the respective concentrations with fresh DMEM with 10% FBS. After exposure overnight, the cell medium was replaced by fresh medium containing the PKC agonist. After incubation for 48 hours, the medium was collected, and both the soluble APP (sAPPα) and Aβ40 levels in the medium were determined by using the sAPPα and Aβ40 ELISA kits obtained from Biosource, Camarillo, Calif. according to the manufacturer's instructions.
In FIG. 1, the data are presented as percent of control±SEM.
Background: An ELISA detects its analyte on a solid surface through an enzyme-linked reagent.

For test [3] the test system is unchanged. In words: Aβ40 ELISA. The class given is cell-based. As to conditions: 24 h. As for the experimental part: as §2
It is theorized, but not relied upon, that if APP synthesis is held relatively constant, the production of Aβ decreases if more of the APP is processed through the α-secretase pathway. To confirm that treatment with a present benzolactam enhances the α-secretase APP-processing pathway, compounds 9-14 were examined to determine whether the increased levels of sAPPα corresponds to a decrease in the production of Aβ40. The cells were treated for 24 h at concentrations ranging from 0.001 to 10 μM, and Aβ40 levels were measured by Aβ40 ELISA. […] In FIG. 2, the data are presented as in FIG. 1, with “*” and “**” having the same meaning. […] In general, there was good agreement between an ability of a present benzolactam to increase sAPPα and its ability to decrease Aβ40.

A further test deals with mouse PKCα (Mus musculus, UniProt P20444). The test is described as follows: PKC binding affinity. As for the experimental part: ClogP and topological polar surface area (tPSA) values were calculated (Table 1). ClogP values for the tested compounds ranged from 0.92 to 4.67. The tPSA values were in the range of 61.80-90.90. […] The binding affinities of the compounds for mouse PKCα were determined as described previously. The Ki values for each of the compounds 2, 3, 6, 7, and 9-14, and known […] bryostatin 1 and SAHA are listed in Table 1.

Another test deals with primary cortical neurons. The test is described as follows: HCA oxidative stress neuroprotection, cortical neurons (MTT). In kind it is cell-based, rat. The following applies: up to 20 μM, presence of HCA, 48 hours. As for the experimental part: as §1
Oxidative toxicity and neuron viability assays: For cytotoxicity studies, cells were rinsed with warm phosphate-buffered saline (PBS), then placed in minimum essential medium (Invitrogen, Carlsbad, Calif.) containing glucose (5.5 g L^−1), 10% fetal calf serum, L-glutamine (2 mM), and cysteine (100 μM). Oxidative stress was induced by the addition of the glutamate analogue HCA ([…]) to the media. HCA was diluted from 100-fold concentrated solutions that were adjusted to pH 7.5. In combination with HCA, TSA, SAHA, or the novel PKC-HDAC compounds were added at various concentrations. Viability was assessed after 48 hours by calceinacetoxymethyl ester (AM)/ethidium homodimer-1 staining (live/dead assay; Molecular Probes, Eugene, Oreg., USA) under fluorescence microscopy and the MTT assay method. Each bar represents the mean ±SEM of four replicates.
In this model of neurodegeneration, oxidative stress is induced by the presence of the glutamate analogue homocysteate (HCA) at a concentration of 5 mM, which depletes the cellular antioxidant glutathione through competitive inhibition of cysteine uptake at the level of the plasma membrane cysteine/glutamate antiporter system xc-. […]
In one embodiment, the present invention relates to a method of treating an individual suffering from a disease or condition wherein activation of PKC and inhibition of HDAC provides a benefit comprising administering a therapeutically effective amount of a compound of structural formula (I) to an individual in need thereof. […] Neuron survival was quantified by MTT assay, a colorimetric assay in which the amount of yellow MTT is reduced to purple formazan by active mitochondrial reductase enzymes in viable cells.

The mark [4] stands for this setting: mouse PKCα, read-out: K1[nm] ± SEM.
Setting [5] is: concentration not given in the sentence (FIG. 3: 10 and 20 μM).

Where two headings read alike, the source gives them in different places.

`CC(=O)SCCCCOc1ccc2c(c1)N(C)C(C(C)C)C(=O)NC(CO)C2` (stereo not drawn) [Compound 10, Thioacetic acid S-[4-(5-hydroxymethyl-2-isopropyl-1-methyl-3-oxo-1,2,3,4,5,6-hexahydrobenzo[e][1,4]diazocin-9-yloxy)butyl] ester]: the “histone H4 acetylation” value in test [1] (10 μM, 8 hours) is given as “less effective at inducing histone H4 acetylation”; in test [1] (20 μM), “modest acetylation was observed”. Further, in test [2] (1 nM), the sAPPα levels result is reported as “statistically significant elevation in sAPPα”. For the same compound, in test [3] (10 μM), the Aβ40 levels result is on record as “significant decrease in Aβ40 levels”.

With `CC(=O)SCCCOc1ccc2c(c1)N(C)C(C(C)C)C(=O)NC(CO)C2` (stereo not drawn) [Compound 9, Thioacetic acid S-[3-(5-hydroxymethyl-2-isopropyl-1-methyl-3-oxo-1,2,3,4,5,6-hexahydrobenzole[e][1,4]diazocin-9-yloxy)propyl]ester], the “histone H4 acetylation” value in test [1] (10 μM, 8 hours) is on record as “less effective at inducing histone H4 acetylation”; in test [1] (20 μM), “modest acetylation was observed”. In addition, the sAPPα levels entry in test [2] (10 μm) is “increase in sAPPα levels”. In addition, the Aβ40 levels result in test [3] (10 μM) was “significant decrease in Aβ40 levels”.

On mouse PKCα, `CC(C)[C@H]1C(=O)N[C@H](CO)Cc2ccc(O)cc2N1C` [Compound 2, 9-Hydroxy-5-hydroxymethyl-2-isopropyl-1-methyl-(2S,5S)-1,4,5,6-tetrahydro-2H-benzo[e][1,4]diazocin-3-one] came in with a Ki of 4840 ± 320 nM.

Consider `CC(=O)SCCCCCCCCOc1ccc2c(c1)N(C)C(C(C)C)C(=O)NC(CO)C2` (stereo not drawn) [Compound 14, Thioacetic acid S-[8-(5-hydroxymethyl-2-isopropyl-1-methyl-3-oxo-1,2,3,4,5,6-hexahydrobenzole[e][1,4]diazocin-9-yloxy)octyl] ester], for which the sAPPα levels result in test [2] (1-10 μm) is “increase in sAPPα levels”. The Aβ40 levels result in test [3] (1-10 μM) was “significant decrease in Aβ40 levels”.

Take `CC(C)[C@H]1C(=O)N[C@H](CO)Cc2ccc(OC(=O)CCCCC3CCSS3)cc2N1C` (stereo partly drawn) [Compound 7, (2S,5S)-1,2,3,4,5,6-Hexahydro-5-(hydroxymethyl)-2-isopropyl-1-methyl-3-oxobenzo[e][1,4]diazocin-9-yl-5-(1,2-dithiolan-3-yl)pentanoate]: the neuroprotection entry with primary cortical neurons was “no neuroprotection”. For the same compound, at mouse PKCα (setting [4]), the Ki amounted to 5.7 ± 1 nM. Also, the “histone H4 acetylation” value in test [1] (setting [5]) is reported as “failed to induce histone H4 acetylation”.

Regarding `CC(=O)SCCCCCOc1ccc2c(c1)N(C)C(C(C)C)C(=O)NC(CO)C2` (stereo not drawn) [Compound 11, Thioacetic acid S-[5-(5-hydroxymethyl-2-isopropyl-1-methyl-3-oxo-1,2,3,4,5,6-hexahydrobenzo[e][1,4]diazocin-9-yloxy)pentyl] ester], in test [2] (10 μm), the sAPPα levels entry is reported as “increase in sAPPα levels”. For the same compound, in test [3] (10 μM), the Aβ40 levels result is “significant decrease in Aβ40 levels”.

Turning to `CC(C)[C@H]1C(=O)N[C@H](CO)Cc2ccc(OCCNC(=O)CCCCC3CCSS3)cc2N1C` (stereo partly drawn) [Compound 6, 1N-{2-[5-Hydroxymethyl-2-isopropyl-1-methyl-3-oxo-(2S,5S)-1,2,3,4,5,6-hexahydrobenzo[e][1,4]diazocin-9-yloxy]ethyl}-5-(1,2-dithiolan-3-yl)pentanamide], the neuroprotection result with primary cortical neurons is listed as “no neuroprotection”. Further, the Ki on mouse PKCα (setting [4]) is 148 ± 18 nM. Also, the “histone H4 acetylation” value in test [1] (setting [5]) was “failed to induce histone H4 acetylation”.

`CC(=O)SCCCCCCOc1ccc2c(c1)N(C)C(C(C)C)C(=O)NC(CO)C2` (stereo not drawn) [Compound 12, Thioacetic acid S-[6-(5-hydroxymethyl-2-isopropyl-1-methyl-3-oxo-1,2,3,4,5,6-hexahydrobenzo[e][1,4]diazocin-9-yloxy)hexyl] ester]: the Ki at mouse PKCα (setting [4]) was 8.7 ± 0.7 nM. Moreover, in test [2] (1-10 μm), the sAPPα levels result is recorded as “increase in sAPPα levels”. For the same compound, the Aβ40 levels result in test [3] (10 μM) is on record as “significant decrease in Aβ40 levels”.

In turn, `CC(=O)SCCCCCCCOc1ccc2c(c1)N(C)C(C(C)C)C(=O)NC(CO)C2` (stereo not drawn) [Compound 13, Thioacetic acid S-[7-(5-hydroxymethyl-2-isopropyl-1-methyl-3-oxo-1,2,3,4,5,6-hexahydrobenzo[e][1,4]diazocin-9-yloxy)heptyl] ester] gave a Ki at mouse PKCα of 4.5 ± 0.4 nM. In addition, the sAPPα levels entry in test [2] (10 μm) was “increase in sAPPα levels”. In addition, the Aβ40 levels result in test [3] (1-10 μM) is recorded as “significant decrease in Aβ40 levels”.

`C=CCCCCCOc1ccc2c(c1)N(C)C(C(C)C)C(=O)NC(CO)C2` (stereo not drawn) [Compound 3, 9-Hept-6-enyloxy-5-hydroxymethyl-2-isopropyl-1-methyl-1,4,5,6-tetrahydro-2H-benzo[e][1,4]diazocin-3-one]: the neuroprotection entry in the test with primary cortical neurons is “no neuroprotection”. Also, in test [1] (20 μM), the “histone H4 acetylation” value is given as “did not increase histone H4 acetylation”.

For the origin of these results see US20110257145A1, “METHOD OF TREATING NEUROLOGICAL DISEASES” (THE BOARD OF TRUSTEES OF THE UNIVERSITY OF ILLINOIS, priority 2008, published 2011).
